Laboratory results: article PMC12595434, “Development of retinoid nuclear receptor pathway antagonists through targeting aldehyde dehydrogenase 1A3” (iScience, 2025)

How the values were obtained:
[1] = Microsomal stability (mouse); assay type: in vitro ADME; settings: microsomes, read-out: Microsomal T1/2 (mouse)
CYP2D6 = CYP2D6 (Homo sapiens, UniProt P10635); assay: CYP inhibition; assay type: in vitro ADME
[2] = Microsomal stability (human); assay type: in vitro ADME; settings: microsomes, read-out: Microsomal T1/2 (human)
CYP2C19 = CYP2C19 (Homo sapiens, UniProt P33261); assay: CYP inhibition; assay type: in vitro ADME
Sequence of CYP2C19 (P33261 whole entry): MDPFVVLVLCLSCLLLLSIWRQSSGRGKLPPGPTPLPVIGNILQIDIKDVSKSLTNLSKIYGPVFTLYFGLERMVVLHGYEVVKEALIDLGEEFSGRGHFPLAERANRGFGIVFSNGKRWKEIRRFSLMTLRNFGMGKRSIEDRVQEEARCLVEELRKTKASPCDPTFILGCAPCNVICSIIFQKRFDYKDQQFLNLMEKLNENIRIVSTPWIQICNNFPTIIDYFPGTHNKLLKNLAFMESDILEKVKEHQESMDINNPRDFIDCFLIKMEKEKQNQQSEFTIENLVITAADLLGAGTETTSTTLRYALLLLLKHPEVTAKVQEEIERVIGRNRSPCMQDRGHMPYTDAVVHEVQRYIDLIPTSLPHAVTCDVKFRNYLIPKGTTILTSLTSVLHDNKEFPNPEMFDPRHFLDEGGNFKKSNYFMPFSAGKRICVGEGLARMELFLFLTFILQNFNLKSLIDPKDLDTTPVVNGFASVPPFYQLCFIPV

hERG [3] = molecular target: T1, hERG (Homo sapiens, UniProt Q12809); assay: hERG patch-clamp; assay type: cell-based
T1 sequence (Q12809 whole entry): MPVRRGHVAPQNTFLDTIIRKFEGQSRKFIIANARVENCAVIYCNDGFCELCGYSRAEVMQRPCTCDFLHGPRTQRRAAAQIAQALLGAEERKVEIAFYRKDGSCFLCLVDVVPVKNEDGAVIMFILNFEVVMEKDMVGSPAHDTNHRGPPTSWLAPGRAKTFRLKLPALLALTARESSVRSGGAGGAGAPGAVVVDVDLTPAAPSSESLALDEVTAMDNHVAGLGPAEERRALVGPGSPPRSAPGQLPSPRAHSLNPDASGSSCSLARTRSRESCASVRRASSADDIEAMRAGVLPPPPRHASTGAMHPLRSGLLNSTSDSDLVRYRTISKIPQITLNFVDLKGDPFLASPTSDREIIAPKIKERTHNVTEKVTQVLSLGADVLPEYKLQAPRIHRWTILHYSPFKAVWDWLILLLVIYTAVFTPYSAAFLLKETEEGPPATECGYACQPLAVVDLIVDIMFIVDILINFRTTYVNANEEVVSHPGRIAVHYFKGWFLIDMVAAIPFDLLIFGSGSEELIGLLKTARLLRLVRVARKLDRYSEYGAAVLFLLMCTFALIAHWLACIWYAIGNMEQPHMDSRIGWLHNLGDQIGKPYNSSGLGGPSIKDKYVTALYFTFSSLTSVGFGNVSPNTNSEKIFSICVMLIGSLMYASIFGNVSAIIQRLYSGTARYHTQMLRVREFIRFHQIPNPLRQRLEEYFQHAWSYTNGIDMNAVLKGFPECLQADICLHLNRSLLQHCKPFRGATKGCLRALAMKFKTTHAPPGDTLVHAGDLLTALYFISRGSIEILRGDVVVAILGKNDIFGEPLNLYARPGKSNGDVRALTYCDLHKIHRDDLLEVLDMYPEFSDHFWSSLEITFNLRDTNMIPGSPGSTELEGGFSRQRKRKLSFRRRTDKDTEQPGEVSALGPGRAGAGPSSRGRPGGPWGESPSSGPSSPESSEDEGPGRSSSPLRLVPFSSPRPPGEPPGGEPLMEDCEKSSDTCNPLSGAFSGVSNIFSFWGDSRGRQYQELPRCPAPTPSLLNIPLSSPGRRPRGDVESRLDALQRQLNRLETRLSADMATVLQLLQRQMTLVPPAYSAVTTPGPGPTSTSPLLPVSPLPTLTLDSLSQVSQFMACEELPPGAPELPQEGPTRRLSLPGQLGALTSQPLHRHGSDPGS

hERG [4] = molecular target: T1, hERG; assay: hERG dofetilide binding assay
ALDH1A3 = molecular target: T2, ALDH1A3 (Homo sapiens, UniProt P47895); assay: Microscale thermophoresis (MST) binding; design: made in house; host or cells: BL21-DE3 E. coli; settings: biophysical assay (Table 1)
T2 sequence (P47895 1-512): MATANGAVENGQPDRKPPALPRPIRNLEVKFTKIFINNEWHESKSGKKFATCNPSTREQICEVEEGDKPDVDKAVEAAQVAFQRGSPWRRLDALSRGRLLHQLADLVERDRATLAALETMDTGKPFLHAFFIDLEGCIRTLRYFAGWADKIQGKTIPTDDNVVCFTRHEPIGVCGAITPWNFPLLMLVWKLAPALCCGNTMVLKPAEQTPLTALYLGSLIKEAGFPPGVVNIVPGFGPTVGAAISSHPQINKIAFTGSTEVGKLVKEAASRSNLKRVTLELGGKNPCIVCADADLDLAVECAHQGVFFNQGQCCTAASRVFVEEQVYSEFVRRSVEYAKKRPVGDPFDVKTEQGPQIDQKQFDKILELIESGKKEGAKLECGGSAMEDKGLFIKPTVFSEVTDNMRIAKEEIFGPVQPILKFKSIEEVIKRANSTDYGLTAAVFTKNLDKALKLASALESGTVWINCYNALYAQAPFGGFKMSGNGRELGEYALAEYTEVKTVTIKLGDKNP

[5] = Cytotoxicity, 48 h tetrazolium proliferation assay
CYP2C9 = CYP2C9 (Homo sapiens, UniProt P11712); assay: CYP inhibition; assay type: in vitro ADME
Sequence of CYP2C9 (P11712 whole entry): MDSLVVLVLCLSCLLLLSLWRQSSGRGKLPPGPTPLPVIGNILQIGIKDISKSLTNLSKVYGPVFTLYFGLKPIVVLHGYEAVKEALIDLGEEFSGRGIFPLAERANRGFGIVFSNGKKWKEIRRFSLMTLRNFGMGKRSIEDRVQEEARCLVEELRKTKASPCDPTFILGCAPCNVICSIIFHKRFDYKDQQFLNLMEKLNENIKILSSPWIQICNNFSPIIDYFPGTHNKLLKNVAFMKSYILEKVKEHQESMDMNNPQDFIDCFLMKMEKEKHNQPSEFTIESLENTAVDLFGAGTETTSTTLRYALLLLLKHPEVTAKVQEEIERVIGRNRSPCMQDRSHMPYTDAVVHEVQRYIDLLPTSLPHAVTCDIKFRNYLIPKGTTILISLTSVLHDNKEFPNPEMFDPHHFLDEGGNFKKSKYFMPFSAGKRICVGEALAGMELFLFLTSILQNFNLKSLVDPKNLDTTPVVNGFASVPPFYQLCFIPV

[6] = IV/PO pharmacokinetics in fasted male CD-1 mice
MDCK-MDR2 = MDCK-MDR2 bidirectional permeability assay; assay type: in vitro ADME; settings: A to B
MDR2 = assay: MDCK-MDR2 bidirectional permeability assay; assay type: in vitro ADME; settings: dog; efflux ratio; read-out: MDCK-MDR2 (B to A/A to B)
[7] = test system: endogenous ALDH1A3 in MDA-MB-468 cells; assay: Quantification of atRA in cells; assay type: cell-based, human; settings: 24 h, dose titration
[8] = Hepatocyte stability (human); assay type: in vitro ADME; settings: hepatocytes, read-out: Hepatocyte T1/2 (human)
CYP1A2 = CYP1A2 (Homo sapiens, UniProt P05177); assay: CYP inhibition; assay type: in vitro ADME
Sequence of CYP1A2 (P05177 whole entry): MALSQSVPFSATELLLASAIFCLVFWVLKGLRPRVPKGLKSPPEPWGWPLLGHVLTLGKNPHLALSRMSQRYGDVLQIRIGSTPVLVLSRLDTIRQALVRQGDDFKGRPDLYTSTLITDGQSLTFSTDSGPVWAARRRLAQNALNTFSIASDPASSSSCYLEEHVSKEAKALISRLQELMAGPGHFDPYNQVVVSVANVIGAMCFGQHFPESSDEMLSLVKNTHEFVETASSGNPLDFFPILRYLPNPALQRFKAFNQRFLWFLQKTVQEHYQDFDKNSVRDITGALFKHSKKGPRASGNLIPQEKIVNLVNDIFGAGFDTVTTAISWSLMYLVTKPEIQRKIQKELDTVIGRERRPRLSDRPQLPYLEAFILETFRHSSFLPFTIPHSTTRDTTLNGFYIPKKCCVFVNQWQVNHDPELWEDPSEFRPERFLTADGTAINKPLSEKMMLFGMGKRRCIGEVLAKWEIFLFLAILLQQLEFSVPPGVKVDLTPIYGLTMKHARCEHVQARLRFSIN

human ALDH1A1 = molecular target: T3, human ALDH1A1 (Homo sapiens, UniProt P00352); assay: Recombinant enzyme activity assay; assay type: biochemical; settings: dose titration, up to 10 μM
T3 construct: made in house; host or cells: BL21-DE3 E. coli
T3 sequence (P00352 1-501): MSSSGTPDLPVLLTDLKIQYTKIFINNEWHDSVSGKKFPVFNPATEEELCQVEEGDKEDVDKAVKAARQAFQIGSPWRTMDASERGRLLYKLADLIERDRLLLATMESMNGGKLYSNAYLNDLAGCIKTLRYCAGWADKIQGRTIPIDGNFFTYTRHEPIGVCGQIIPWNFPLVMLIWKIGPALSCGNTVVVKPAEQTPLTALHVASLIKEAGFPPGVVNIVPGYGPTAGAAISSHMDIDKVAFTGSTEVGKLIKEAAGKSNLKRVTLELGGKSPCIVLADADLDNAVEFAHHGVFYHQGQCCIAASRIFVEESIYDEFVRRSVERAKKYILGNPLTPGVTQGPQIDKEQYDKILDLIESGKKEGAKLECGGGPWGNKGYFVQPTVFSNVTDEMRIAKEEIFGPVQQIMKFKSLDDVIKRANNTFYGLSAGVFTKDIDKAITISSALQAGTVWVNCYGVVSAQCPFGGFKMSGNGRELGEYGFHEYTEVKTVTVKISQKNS
Method: Purified enzyme was used for biochemical and biophysical assays.
For the recombinant enzyme activity assay, enzyme aliquots were thawed on ice for 4 h prior to analysis and the protocol was performed as described[8] with the following key changes: 1) Final concentrations of NAD+ (Gold Bio) were 200 μM and BSA were 1 mg/mL 2) Propanaldehyde was used as the substrate for ALDH1A1 and ALDH2. 3) Reaction velocity was monitored through diaphorase (clostridium) coupled reduction of resazurin (100 μM) monitored with ex/em of 560nm/590 nm in order to regenerate NAD+ and thus maintain constant cofactor concentration as well as to avoid high absorbance values of many screening compounds at the NADH absorbance. Assays were conducted at room temperature (controlled to 21-23C) and all buffers were maintained at pH 7.5. For all reactions, pre-incubation time was approximately 2 min while the reaction monitoring was performed over 10 min.

[9] = test system: human ALDH1A3 in MCF7-ALDH1A3 cells; assay: STRA6 qPCR retinoid inhibition assay in MCF7-ALDH1A3 cells; settings: for IC50: 24 h, read-out: cellular IC50 for ALDH1A3, STRA6 mRNA; for EC50: read-out: EC50 cellular, human ALDH1A3
[10] = 1 mg/kg IV and 10 mg/kg PO, fasted male CD1 mice

Sequence of CYP2D6 (P10635 whole entry): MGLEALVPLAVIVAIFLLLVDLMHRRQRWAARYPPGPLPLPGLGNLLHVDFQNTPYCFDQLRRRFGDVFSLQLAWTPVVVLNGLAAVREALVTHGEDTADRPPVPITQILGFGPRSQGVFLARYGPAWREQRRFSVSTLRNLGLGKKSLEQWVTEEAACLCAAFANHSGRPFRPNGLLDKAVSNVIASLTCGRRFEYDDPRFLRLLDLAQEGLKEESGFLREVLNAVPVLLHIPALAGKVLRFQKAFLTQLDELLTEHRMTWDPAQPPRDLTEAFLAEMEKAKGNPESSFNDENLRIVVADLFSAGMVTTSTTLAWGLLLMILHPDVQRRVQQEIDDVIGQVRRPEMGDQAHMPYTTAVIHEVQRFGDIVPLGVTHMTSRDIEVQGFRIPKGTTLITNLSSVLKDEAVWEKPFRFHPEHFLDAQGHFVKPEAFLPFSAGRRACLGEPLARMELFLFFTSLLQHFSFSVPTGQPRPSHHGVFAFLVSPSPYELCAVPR

| Compound | half-life [1] | inhibition at 10 µM (CYP2D6) | half-life [2] | inhibition at 10 µM (CYP2C19) | IC50 (hERG [3]) | IC50 (hERG [4]) | Kd (ALDH1A3) | Cytotoxicity [5] | inhibition at 10 µM (CYP2C9) | MDCK-MDR2 permeability A to B (MDCK-MDR2) | efflux ratio (MDR2) | reduction of atRA formation (in words) [7] | half-life [8] | inhibition at 10 µM (CYP1A2) | inhibitory activity against ALDH1A1 (in words) (human ALDH1A1) | IC50 [9] | EC50 [9] | further results |
| --- | --- | --- | --- | --- | --- | --- | --- | --- | --- | --- | --- | --- | --- | --- | --- | --- | --- | --- |
| CCc1cnccc1C(=O)Nc1cc2c(cc1F)NC(=O)CC2 [MBE1, 3-ethyl-N-(7-fluoro-2-oxo-3,4-dihydro-1H-quinolin-6-yl)pyridine-4-carboxamide] | 0.727 h | 61.3% | > 2.42 h | 15.8% | 26600 nM | > 30000 nM | 71.7 nM | >100 µM | 13.9% | high | 2.42 | potently reduced atRA formation | > 3.61 h | 8.8% | no inhibition | 3.67 nM | 3.67 nM | Oral bioavailability ([6]; 1 mg/kg i.v. and 10 mg/kg PO, fasted male CD-1 mice): 88.3%; half-life ([6]; male, CD-1, mouse, plasma, po, 10 mg/kg): 1.37 h |
| CCc1ccccc1C(=O)Nc1cc2c(cc1F)NC(=O)CC2 [MBE1.5, 2-ethyl-N-(7-fluoro-2-oxo-3,4-dihydro-1H-quinolin-6-yl)benzamide] | 1.87 h | 0% | > 2.42 h | 0% | > 30000 nM | > 30000 nM | 42.1 nM | >100 µM | 5.6% | high | 0.6 | potently reduced atRA formation | > 3.61 h | 11.6% | no inhibition | < 1 nM | 0.53 nM | bioavailability compared with MBE1 (in words) [6, 10]: reduced bioavailability; half-life compared with MBE1 (in words) [6, 10]: improved half-life |
